From PubChem BioAssay (NCI)
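Following 48 hours of exposure in 96-well plates, responses at five concentrations were used to interpolate endpoints linearly. Abbreviation: GI50, concentration required for 50% inhibition of growth. TGI is the concentration that stops growth completely.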

Tests used:
Test in all cases: NCI anticancer screen, dose series, 48 h; in the data active = GI50 below about 0.43 µM; inactive = the rest
786-0 renal = tested on: 786-0 renal
MDA-MB-435 = tested on: MDA-MB-435
TK-10 renal = tested on: TK-10 renal
HCT-116 colon = tested on: HCT-116 colon
HT29 colon = tested on: HT29 colon
SF-539 CNS = tested on: SF-539 CNS
PC-3 prostate = tested on: PC-3 prostate
A549 NSCLC = tested on: A549 NSCLC
SK-MEL-28 melanoma = tested on: SK-MEL-28 melanoma
DU-145 prostate = tested on: DU-145 prostate
HOP-92 NSCLC = tested on: HOP-92 NSCLC
SNB-19 CNS = tested on: SNB-19 CNS
UACC-257 melanoma = tested on: UACC-257 melanoma
MDA-MB-231 breast = tested on: MDA-MB-231 breast
EKVX NSCLC = tested on: EKVX NSCLC
HOP-62 NSCLC = tested on: HOP-62 NSCLC
MALME-3M melanoma = tested on: MALME-3M melanoma
SN12C renal = tested on: SN12C renal
BT-549 breast = tested on: BT-549 breast
NCI-H226 lung = tested on: NCI-H226 lung
HS 578T breast = tested on: HS 578T breast
OVCAR-3 ovarian = tested on: OVCAR-3 ovarian
SF-268 CNS = tested on: SF-268 CNS
OVCAR-4 ovarian = tested on: OVCAR-4 ovarian
NCI-H23 lung = tested on: NCI-H23 lung
K-562 leukemia = tested on: K-562 leukemia
UO-31 renal = tested on: UO-31 renal
COLO 205 colon = tested on: COLO 205 colon
ACHN renal = tested on: ACHN renal
A498 renal = tested on: A498 renal
MOLT-4 leukemia = tested on: MOLT-4 leukemia
IGROV1 ovarian = tested on: IGROV1 ovarian
SK-MEL-2 melanoma = tested on: SK-MEL-2 melanoma
SF-295 CNS = tested on: SF-295 CNS
SK-OV-3 ovarian = tested on: SK-OV-3 ovarian
SK-MEL-5 melanoma = tested on: SK-MEL-5 melanoma
SNB-75 CNS = tested on: SNB-75 CNS
NCI/ADR-RES ovarian = tested on: NCI/ADR-RES ovarian
NCI-H460 lung = tested on: NCI-H460 lung
M14 melanoma = tested on: M14 melanoma
CAKI-1 renal = tested on: CAKI-1 renal
LOX IMVI melanoma = tested on: LOX IMVI melanoma
T-47D breast = tested on: T-47D breast
OVCAR-5 ovarian = tested on: OVCAR-5 ovarian
CCRF-CEM leukemia = tested on: CCRF-CEM leukemia
UACC-62 melanoma = tested on: UACC-62 melanoma
HCT-15 colon = tested on: HCT-15 colon
MCF7 breast = tested on: MCF7 breast
HL-60(TB) leukemia = tested on: HL-60(TB) leukemia
SW-620 colon = tested on: SW-620 colon
KM12 colon = tested on: KM12 colon
RPMI-8226 leukemia = tested on: RPMI-8226 leukemia
OVCAR-8 ovarian = tested on: OVCAR-8 ovarian
U251 CNS = tested on: U251 CNS
NCI-H522 lung = tested on: NCI-H522 lung

COc1cc(/C=C2\C(=O)Nc3ccc(F)cc32)cc(OC)c1OC
42.8 µM: TGI (HOP-92 NSCLC)
79.3 µM: TGI (SNB-75 CNS)
> 100 µM: TGI (786-0 renal) | TGI (MDA-MB-435) | TGI (TK-10 renal) | TGI (HCT-116 colon) | TGI (HT29 colon) | TGI (SF-539 CNS) | TGI (PC-3 prostate) | TGI (A549 NSCLC) | TGI (SK-MEL-28 melanoma) | TGI (DU-145 prostate) | TGI (SNB-19 CNS) | TGI (UACC-257 melanoma) | TGI (EKVX NSCLC) | TGI (HOP-62 NSCLC) | TGI (MALME-3M melanoma) | TGI (SN12C renal) | TGI (BT-549 breast) | TGI (NCI-H226 lung) | TGI (HS 578T breast) | TGI (OVCAR-3 ovarian) | TGI (SF-268 CNS) | TGI (OVCAR-4 ovarian) | TGI (NCI-H23 lung) | TGI (K-562 leukemia) | TGI (UO-31 renal) | TGI (COLO 205 colon) | TGI (ACHN renal) | TGI (A498 renal) | TGI (MOLT-4 leukemia) | TGI (IGROV1 ovarian) | TGI (SK-MEL-2 melanoma) | TGI (SF-295 CNS) | TGI (SK-OV-3 ovarian) | TGI (SK-MEL-5 melanoma) | TGI (NCI/ADR-RES ovarian) | TGI (NCI-H460 lung) | TGI (M14 melanoma) | TGI (CAKI-1 renal) | TGI (LOX IMVI melanoma) | TGI (T-47D breast) | TGI (OVCAR-5 ovarian) | TGI (CCRF-CEM leukemia) | TGI (UACC-62 melanoma) | TGI (HCT-15 colon) | TGI (MCF7 breast) | TGI (HL-60(TB) leukemia) | TGI (SW-620 colon) | TGI (KM12 colon) | TGI (RPMI-8226 leukemia) | TGI (OVCAR-8 ovarian) | TGI (NCI-H522 lung)
inactive: GI50 (786-0 renal) 31.2 µM | GI50 (MDA-MB-435) 5.5 µM | GI50 (TK-10 renal) 68.5 µM | GI50 (HCT-116 colon) 21.2 µM | GI50 (HT29 colon) 24.8 µM | GI50 (SF-539 CNS) > 100 µM | GI50 (PC-3 prostate) 40.4 µM | GI50 (A549 NSCLC) 51.8 µM | GI50 (SK-MEL-28 melanoma) 56.7 µM | GI50 (DU-145 prostate) 18.4 µM | GI50 (HOP-92 NSCLC) 5.07 µM | GI50 (SNB-19 CNS) 38.4 µM | GI50 (UACC-257 melanoma) 87.6 µM | GI50 (MDA-MB-231 breast) 3.16 µM | GI50 (EKVX NSCLC) 33.1 µM | GI50 (HOP-62 NSCLC) 35.8 µM | GI50 (MALME-3M melanoma) 29.6 µM | GI50 (SN12C renal) 51.8 µM | GI50 (BT-549 breast) 22.7 µM | GI50 (NCI-H226 lung) 23.7 µM | GI50 (HS 578T breast) 30.4 µM | GI50 (OVCAR-3 ovarian) 22.8 µM | GI50 (SF-268 CNS) 28.3 µM | GI50 (OVCAR-4 ovarian) 60 µM | GI50 (NCI-H23 lung) 24 µM | GI50 (K-562 leukemia) 5.67 µM | GI50 (UO-31 renal) 11.9 µM | GI50 (COLO 205 colon) 62.7 µM | GI50 (ACHN renal) 50 µM | GI50 (A498 renal) 54 µM | GI50 (MOLT-4 leukemia) 9.26 µM | GI50 (IGROV1 ovarian) 8.44 µM | GI50 (SK-MEL-2 melanoma) 96.4 µM | GI50 (SF-295 CNS) > 100 µM | GI50 (SK-OV-3 ovarian) > 100 µM | GI50 (SK-MEL-5 melanoma) 17.3 µM | GI50 (SNB-75 CNS) 9.18 µM | GI50 (NCI/ADR-RES ovarian) 18.9 µM | GI50 (NCI-H460 lung) 19.6 µM | GI50 (M14 melanoma) 63.5 µM | GI50 (CAKI-1 renal) 15.8 µM | GI50 (LOX IMVI melanoma) 20.5 µM | GI50 (T-47D breast) 7.2 µM | GI50 (OVCAR-5 ovarian) > 100 µM | GI50 (CCRF-CEM leukemia) 23.3 µM | GI50 (UACC-62 melanoma) 11.7 µM | GI50 (HCT-15 colon) 14.9 µM | GI50 (MCF7 breast) 4.73 µM | GI50 (HL-60(TB) leukemia) 8.39 µM | GI50 (SW-620 colon) 63.7 µM | GI50 (KM12 colon) 26.2 µM | GI50 (RPMI-8226 leukemia) 56.8 µM | GI50 (OVCAR-8 ovarian) 64.2 µM | GI50 (U251 CNS) 13.5 µM | GI50 (NCI-H522 lung) 22.8 µM
49.4 µM: TGI (U251 CNS)
36.3 µM: TGI (MDA-MB-231 breast)
